Measured values as given in publication PMC8121805, “Discovery of first-in-class inhibitors of ASH1L histone methyltransferase with anti-leukemic activity” (Nature Communications, 2021).
Values joined by “and” are separate entries in the source; they are usually repeats but may differ in a detail not shown here. Equal values may be shown once.

How the values were obtained:
[1] = target: ASH1L (amino acids 2046–2330) (Homo sapiens, UniProt Q9NR48); assay: Histone methyltransferase (HMT) assay
Description: The mixtures of ASH1L and compounds were incubated at room temperature for 1 h. […] The reaction was continued for 1 h at room temperature, then quenched by addition of 10% Trichloroacetic acid (TCA) and then transferred to 96-well filter plates (Millipore sigma, MSFBN6B), washed twice with 10% TCA and then once with 200-proof ethanol. After extensive drying, 70 µL of Microscint-O scintillant (PerkinElmer) was added and counts per minute (CPM) were measured using a MicroBeta microplate counter (PerkinElmer). Titration curves were plotted using Prism (GraphPad Prism 8.0.0.) and IC50 values were calculated.

[2] = target: PRMT6 (Homo sapiens, UniProt Q96LA8); assay: HMT selectivity panel; conditions: PRMT6, 50 µM compound
Description: (§1) mM DTT and 0.01% Triton X-100 was used in experiments containing core histone.

[3] = tested on: panel of 20 histone methyltransferases; assay: Panel of 20 histone methyltransferases as a whole; conditions: 50 µM
Description: as §1
experiments containing nucleosome.
G9a 5 core histone 0.05 mg/mL 1
GLP 5 core histone 0.05 mg/mL 1

[4] = target: MLL1 (Homo sapiens, UniProt Q03164); assay: HMT selectivity panel; conditions: MLL1, 50 µM compound
Description: as §1

[5] = target: PRDM9 (Homo sapiens, UniProt Q9NQV7); assay: HMT selectivity panel; conditions: PRDM9, 50 µM compound
Description: as §1

[6] = target: SMYD2 (Homo sapiens, UniProt Q9NRG4); assay: HMT selectivity panel; conditions: SMYD2, 50 µM compound
Description: (§2) Assay conditions for selectivity experiments with a panel of histone
as §1

[7] = PK studies in mice
Description: The LC-MS/MS method consisted of a Shimadzu UFLC 20 A system and chromatographic separation of test compound was achieved using Waters XBridge C18 column (5 cm × 2.1 mm, 3.5 µm). An AB Sciex QTrap 5500 mass spectrometer equipped with an electrospray ionization source (ABI-Sciex, Toronto, Canada) in the positive-ion multiple reaction monitoring (MRM) mode was used for detection. All pharmacokinetic parameters were calculated by noncompartmental methods using WinNonlin® version 3.2 (Pharsight Corporation, Mountain View, CA, USA). Parameters are presented as a mean ± standard deviation (SD).
CL (clearance), AUC (area under the curve),
Cmax (maximum concentration achieved), Tmax (time at which maximum concentration was
achieved), were calculated by noncompartmental methods using WinNonlin® software version

[8] = target: EZH2 (Homo sapiens, UniProt Q15910); assay: HMT selectivity panel; conditions: EZH2, 50 µM compound
Chain of EZH2 (Q15910 whole entry, species assumed): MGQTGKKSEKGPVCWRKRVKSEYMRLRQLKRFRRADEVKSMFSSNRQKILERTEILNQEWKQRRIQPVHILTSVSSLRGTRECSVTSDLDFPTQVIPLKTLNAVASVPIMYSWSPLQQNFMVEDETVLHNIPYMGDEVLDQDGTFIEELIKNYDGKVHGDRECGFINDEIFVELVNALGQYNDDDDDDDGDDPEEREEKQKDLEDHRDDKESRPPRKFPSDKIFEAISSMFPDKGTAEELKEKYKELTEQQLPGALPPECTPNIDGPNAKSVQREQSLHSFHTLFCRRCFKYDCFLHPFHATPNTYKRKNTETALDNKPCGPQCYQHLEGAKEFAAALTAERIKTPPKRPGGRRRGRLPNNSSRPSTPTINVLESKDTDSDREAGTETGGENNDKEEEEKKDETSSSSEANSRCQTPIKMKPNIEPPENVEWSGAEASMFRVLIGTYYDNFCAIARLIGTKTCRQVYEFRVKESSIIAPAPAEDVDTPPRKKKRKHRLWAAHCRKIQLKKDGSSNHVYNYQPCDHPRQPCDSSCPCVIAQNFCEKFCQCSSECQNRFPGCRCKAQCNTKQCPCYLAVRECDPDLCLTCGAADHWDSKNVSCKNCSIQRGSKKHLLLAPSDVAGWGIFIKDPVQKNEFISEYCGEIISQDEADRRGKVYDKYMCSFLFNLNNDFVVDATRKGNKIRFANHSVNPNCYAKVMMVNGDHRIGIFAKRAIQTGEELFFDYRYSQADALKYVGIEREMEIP
Chain of EZH2 (O75530 whole entry partner, species assumed): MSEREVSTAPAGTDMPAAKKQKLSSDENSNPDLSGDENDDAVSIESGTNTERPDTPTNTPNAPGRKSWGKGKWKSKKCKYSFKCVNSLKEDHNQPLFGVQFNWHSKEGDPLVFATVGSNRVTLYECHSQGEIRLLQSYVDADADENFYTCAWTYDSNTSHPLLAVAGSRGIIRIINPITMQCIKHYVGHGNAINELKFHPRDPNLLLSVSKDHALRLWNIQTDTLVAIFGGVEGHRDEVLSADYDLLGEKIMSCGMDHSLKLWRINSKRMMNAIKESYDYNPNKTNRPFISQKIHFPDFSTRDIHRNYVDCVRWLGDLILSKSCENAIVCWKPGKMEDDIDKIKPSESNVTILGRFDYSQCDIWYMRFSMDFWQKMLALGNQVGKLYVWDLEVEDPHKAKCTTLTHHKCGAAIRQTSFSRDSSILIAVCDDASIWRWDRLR
Chain of EZH2 (Q15022 whole entry partner, species assumed): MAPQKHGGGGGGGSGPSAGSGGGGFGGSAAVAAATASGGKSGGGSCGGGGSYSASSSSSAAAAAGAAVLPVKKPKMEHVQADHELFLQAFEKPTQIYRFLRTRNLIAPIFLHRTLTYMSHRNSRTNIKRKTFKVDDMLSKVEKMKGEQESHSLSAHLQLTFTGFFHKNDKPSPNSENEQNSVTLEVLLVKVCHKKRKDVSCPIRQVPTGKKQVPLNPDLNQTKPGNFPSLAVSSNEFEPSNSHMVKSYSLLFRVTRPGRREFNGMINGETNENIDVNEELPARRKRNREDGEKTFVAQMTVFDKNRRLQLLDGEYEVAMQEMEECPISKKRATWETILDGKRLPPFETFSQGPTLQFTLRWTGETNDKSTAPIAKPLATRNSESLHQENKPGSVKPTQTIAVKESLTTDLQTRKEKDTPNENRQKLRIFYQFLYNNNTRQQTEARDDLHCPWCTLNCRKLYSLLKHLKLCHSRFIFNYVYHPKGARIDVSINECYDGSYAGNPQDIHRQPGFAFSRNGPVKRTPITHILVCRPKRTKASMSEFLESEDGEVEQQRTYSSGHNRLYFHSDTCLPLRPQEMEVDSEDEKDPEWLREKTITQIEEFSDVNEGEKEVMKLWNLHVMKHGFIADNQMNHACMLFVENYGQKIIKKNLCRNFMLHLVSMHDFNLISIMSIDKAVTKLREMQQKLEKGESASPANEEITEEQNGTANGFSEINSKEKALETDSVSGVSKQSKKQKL
Description: as §1
experiments containing nucleosome.
G9a 5 core histone 0.05 mg/mL 1
GLP 5 core histone 0.05 mg/mL 1

[9] = target: PRMT3 (Homo sapiens, UniProt O60678); assay: HMT selectivity panel; conditions: PRMT3, 50 µM compound
Description: as §1

[10] = target: SETD2 (Homo sapiens, UniProt Q9BYW2); assay: HMT selectivity panel; conditions: SETD2, 50 µM compound
Description: as §2, §1

[11] = target: GLP (Homo sapiens, UniProt Q9H9B1); assay: HMT selectivity panel; conditions: 50 µM compound
Description: as §1
experiments containing nucleosome.
G9a 5 core histone 0.05 mg/mL 1
GLP 5 core histone 0.05 mg/mL 1

[12] = target: PRMT4 (Homo sapiens, UniProt Q86X55); assay: HMT selectivity panel; conditions: PRMT4, 50 µM compound
Description: as §1

[13] = target: SUV39H2 (Homo sapiens, UniProt Q9H5I1); assay: HMT selectivity panel; conditions: SUV39H2, 50 µM compound
Chain of SUV39H2 (Q9H5I1 whole entry, species assumed): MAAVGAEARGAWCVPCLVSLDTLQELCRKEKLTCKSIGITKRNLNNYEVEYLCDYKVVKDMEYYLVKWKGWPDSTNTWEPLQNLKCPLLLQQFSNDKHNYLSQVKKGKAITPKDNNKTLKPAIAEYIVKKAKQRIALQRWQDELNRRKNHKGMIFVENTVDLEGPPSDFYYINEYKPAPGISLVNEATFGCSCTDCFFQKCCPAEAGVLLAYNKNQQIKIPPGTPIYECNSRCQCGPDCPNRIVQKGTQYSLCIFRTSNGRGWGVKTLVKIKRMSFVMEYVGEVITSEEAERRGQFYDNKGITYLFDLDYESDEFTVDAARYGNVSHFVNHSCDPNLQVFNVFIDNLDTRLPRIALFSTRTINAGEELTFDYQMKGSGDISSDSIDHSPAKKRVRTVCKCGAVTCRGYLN
Description: as §2, §1

[14] = Effect on normal hematopoiesis: flow cytometry of myeloid, B- and T-cells in blood; assay type: in vivo
Description: width, MPV – Mean platelet volume). n = 9 mice / group. Mean +/- SD. b) Flow cytometry analysis […]
assess the effect on myeloid, B- and T-cells. Statistical significance calculated us ing unpaired 2-tailed t-test. n = 9 mice / group. Mean +/- SD. ns - not significant. (c) Representative gating strategy corresponding to the Supplementary Figure 12b for quantification of myeloid, B- and T-cells in blood samples of mice treated with vehicle or AS-99. SSC-A – side scatter area; FSC-A – forward scatter area; FSC-H – forward scatter height.

[15] = target: PRMT1 (Homo sapiens, UniProt Q99873); assay: HMT selectivity panel; conditions: PRMT1, 50 µM compound
Description: as §1

[16] = tested on: luciferase-expressing MV4;11 cells in NSG mice; assay: MV4;11 xenotransplantation bioimaging model (bioluminescence); assay type: in vivo, mouse; conditions: for average radiance: individual mice, 30 mg/kg q.d. i.p.
[17] = tested on: human CD34+ cells from cord blood; assay: Colony-forming assay with normal hematopoietic progenitor cells; conditions: 7 days
Description: The experiment was performed twice. […] Mean ± SD, n = 3 biological replicates. […] Two independent experiments were performed in triplicates. Representative graphs are shown. *P < 0.05; **P < 0.01; ****P < 0.0001; NS not significant.

[18] = target: NSD1 (Homo sapiens, UniProt Q96L73); assay: HMT selectivity panel; conditions: NSD1, 50 µM compound
Chain of NSD1 (Q96L73 whole entry, species assumed): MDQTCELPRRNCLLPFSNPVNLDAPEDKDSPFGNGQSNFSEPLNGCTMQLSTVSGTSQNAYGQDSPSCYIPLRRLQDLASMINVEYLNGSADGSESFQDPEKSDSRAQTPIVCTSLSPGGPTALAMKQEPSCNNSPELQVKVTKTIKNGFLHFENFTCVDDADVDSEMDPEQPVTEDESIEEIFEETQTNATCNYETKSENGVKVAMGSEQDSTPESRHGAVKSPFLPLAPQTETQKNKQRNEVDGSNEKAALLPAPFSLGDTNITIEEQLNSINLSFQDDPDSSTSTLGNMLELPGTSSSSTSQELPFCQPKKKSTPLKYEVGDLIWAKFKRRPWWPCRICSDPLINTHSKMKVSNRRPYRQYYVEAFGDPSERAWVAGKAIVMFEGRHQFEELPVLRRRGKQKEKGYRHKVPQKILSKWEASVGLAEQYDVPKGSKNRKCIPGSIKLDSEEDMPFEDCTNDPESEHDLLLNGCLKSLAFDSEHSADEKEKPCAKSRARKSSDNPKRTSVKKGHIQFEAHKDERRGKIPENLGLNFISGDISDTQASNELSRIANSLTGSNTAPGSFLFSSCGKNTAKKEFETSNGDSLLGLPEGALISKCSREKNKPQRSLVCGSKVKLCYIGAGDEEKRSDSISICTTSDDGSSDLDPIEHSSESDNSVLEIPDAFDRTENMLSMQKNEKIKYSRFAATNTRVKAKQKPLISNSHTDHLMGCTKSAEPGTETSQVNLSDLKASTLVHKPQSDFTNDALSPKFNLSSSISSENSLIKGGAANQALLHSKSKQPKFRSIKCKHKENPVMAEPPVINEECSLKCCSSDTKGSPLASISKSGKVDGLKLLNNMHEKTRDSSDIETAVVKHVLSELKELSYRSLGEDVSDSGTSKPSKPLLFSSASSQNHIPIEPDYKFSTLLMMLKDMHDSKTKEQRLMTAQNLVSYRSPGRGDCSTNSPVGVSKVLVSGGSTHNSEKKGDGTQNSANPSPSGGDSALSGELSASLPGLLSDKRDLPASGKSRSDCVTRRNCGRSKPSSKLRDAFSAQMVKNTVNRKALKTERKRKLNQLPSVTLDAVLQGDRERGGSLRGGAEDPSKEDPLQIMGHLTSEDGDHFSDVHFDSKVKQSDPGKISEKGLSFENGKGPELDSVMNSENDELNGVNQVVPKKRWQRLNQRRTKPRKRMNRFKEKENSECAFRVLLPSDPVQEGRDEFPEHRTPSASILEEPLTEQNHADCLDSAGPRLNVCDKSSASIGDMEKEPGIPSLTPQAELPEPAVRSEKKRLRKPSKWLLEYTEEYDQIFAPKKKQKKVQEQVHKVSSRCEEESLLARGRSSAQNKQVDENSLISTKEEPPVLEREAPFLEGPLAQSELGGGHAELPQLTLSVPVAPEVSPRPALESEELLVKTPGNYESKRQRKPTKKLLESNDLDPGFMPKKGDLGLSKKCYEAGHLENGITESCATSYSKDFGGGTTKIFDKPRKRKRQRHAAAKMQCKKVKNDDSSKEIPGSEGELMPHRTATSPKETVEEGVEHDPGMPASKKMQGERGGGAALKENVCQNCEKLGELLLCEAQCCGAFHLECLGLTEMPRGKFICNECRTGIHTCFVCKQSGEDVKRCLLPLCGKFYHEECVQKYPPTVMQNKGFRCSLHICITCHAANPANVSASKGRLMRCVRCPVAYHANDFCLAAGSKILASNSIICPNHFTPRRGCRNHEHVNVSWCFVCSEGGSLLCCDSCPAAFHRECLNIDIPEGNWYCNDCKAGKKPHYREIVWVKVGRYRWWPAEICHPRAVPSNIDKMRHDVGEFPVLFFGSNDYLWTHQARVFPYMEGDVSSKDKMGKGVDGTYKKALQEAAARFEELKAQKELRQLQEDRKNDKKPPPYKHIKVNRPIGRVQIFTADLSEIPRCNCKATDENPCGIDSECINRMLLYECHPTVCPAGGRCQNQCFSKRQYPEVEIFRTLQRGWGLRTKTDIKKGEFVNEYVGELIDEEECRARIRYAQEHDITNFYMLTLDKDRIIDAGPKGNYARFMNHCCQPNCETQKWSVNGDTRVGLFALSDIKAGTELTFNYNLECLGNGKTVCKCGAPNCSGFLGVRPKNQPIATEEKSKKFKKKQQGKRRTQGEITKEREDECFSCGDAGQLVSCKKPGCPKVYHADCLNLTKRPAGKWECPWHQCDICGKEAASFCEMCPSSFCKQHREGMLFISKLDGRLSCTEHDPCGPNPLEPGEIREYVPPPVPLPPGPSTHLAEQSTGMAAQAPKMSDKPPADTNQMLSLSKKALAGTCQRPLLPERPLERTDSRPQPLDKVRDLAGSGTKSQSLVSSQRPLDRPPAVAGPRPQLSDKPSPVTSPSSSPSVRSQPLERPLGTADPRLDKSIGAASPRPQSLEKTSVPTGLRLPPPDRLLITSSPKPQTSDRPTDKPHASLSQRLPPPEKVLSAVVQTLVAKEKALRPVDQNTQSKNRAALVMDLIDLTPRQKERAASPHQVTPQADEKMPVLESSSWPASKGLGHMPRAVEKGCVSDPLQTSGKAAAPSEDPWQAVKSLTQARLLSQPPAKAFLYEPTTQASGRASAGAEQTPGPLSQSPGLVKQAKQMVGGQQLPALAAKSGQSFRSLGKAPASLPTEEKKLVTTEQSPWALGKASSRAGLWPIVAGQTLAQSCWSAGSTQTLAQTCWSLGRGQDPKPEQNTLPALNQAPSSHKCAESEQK
Description: as §1

[19] = female, CD-1, mouse, plasma, other: i.v. and i.p.
[20] = Fig S12b, individual mice, AS-99 group
[21] = normal mice, 30 mg/kg, i.p., q.d., 14 days

**Q.** For `CN1CC(C(=O)NCc2ccc3c(-c4cccc(C(N)=O)c4)cn(C4CCN(S(=O)(=O)C(F)(F)F)CC4)c3c2)C1` [AS-nc], which “reduced inhibitory activity (thioamide of AS-99 replaced with amide)” value [1] is on record?
**A.** ~ 100 fold

**Q.** And the IC50 ([1]; IC50, HMT assay with nucleosomes as substrate, mean ± s.d. from two independent experiments)?
**A.** 72 µM

**Q.** And the “% Ash1L activity” value ([1]; Log[compound] (M) -3)?
**A.** 8.534% and 3.267%

**Q.** What about the “% Ash1L activity” value ([1]; Log[compound] (M) -3.47712) of the same compound?
**A.** 48.6163% and 37.7254%

**Q.** What about the “% Ash1L activity” value ([1]; Log[compound] (M) -3.95424) of the same compound?
**A.** 56.4006% and 63.2923%

**Q.** And the “% Ash1L activity” value ([1]; Log[compound] (M) -4.43136)?
**A.** 67.1309% and 48.4913%

**Q.** What about the “% Ash1L activity” value ([1]; Log[compound] (M) -4.90849) of the same compound?
**A.** 72.7906% and 62.8102%

**Q.** What about the “% Ash1L activity” value ([1]; Log[compound] (M) -5.38561) of the same compound?
**A.** 70.7731% and 79.0573%

**Q.** And the “% Ash1L activity” value ([1]; Log[compound] (M) -5.86273)?
**A.** 90.948% and 119.086%

**Q.** Which results are given for `CN1CC(C(=O)NCc2ccc3c(-c4cccc(C(N)=S)c4)cn(C4CCN(S(=O)(=O)C(F)(F)F)CC4)c3c2)C1` [AS-99]?
**A.** activity at 50 µM [2]: 105%; % activity ([2]; 50 µM): 107.332%; inhibition of the tested HMTs [3]: no significant inhibition; activity at 50 µM [4]: 50%; % activity ([4]; 50 µM): 69.7738%; activity at 50 µM [5]: 96.8%; % activity ([5]; 50 µM): 100.979%; % activity [6]: 79.4042% and 102.085%; AUC ([7]; female, CD-1, mouse, plasma, ip, 30 mg/kg): 10700 ng·h/mL; concentration at 0.167 h ([7]; female, CD-1, mouse, plasma, ip, 30 mg/kg, blood plasma level of AS-99, i.p., time 0.167 h): 9800 nM; concentration at 0.25 h ([7]; female, CD-1, mouse, plasma, ip, 30 mg/kg, blood plasma level of AS-99, i.p., time 0.25 h): 9110 nM; concentration at 0.5 h ([7]; female, CD-1, mouse, plasma, ip, 30 mg/kg, blood plasma level of AS-99, i.p., time 0.5 h): 6580 nM; concentration at 1 h ([7]; female, CD-1, mouse, plasma, ip, 30 mg/kg, blood plasma level of AS-99, i.p., time 1 h): 6110 nM; concentration at 2 h ([7]; female, CD-1, mouse, plasma, ip, 30 mg/kg, blood plasma level of AS-99, i.p., time 2 h): 2760 nM; concentration at 4 h ([7]; female, CD-1, mouse, plasma, ip, 30 mg/kg, blood plasma level of AS-99, i.p., time 4 h): 840 nM; concentration at 7 h ([7]; female, CD-1, mouse, plasma, ip, 30 mg/kg, blood plasma level of AS-99, i.p., time 7 h): 300 nM; concentration at 16 h ([7]; female, CD-1, mouse, plasma, ip, 30 mg/kg, blood plasma level of AS-99, i.p., time 16 h): 84 nM; concentration at 24 h ([7]; female, CD-1, mouse, plasma, ip, 30 mg/kg, blood plasma level of AS-99, i.p., time 24 h): 33.7 nM; AUC ([7]; female, CD-1, mouse, plasma, iv, 15 mg/kg): 9700 ng·h/mL; concentration at 0.083 h ([7]; female, CD-1, mouse, plasma, iv, 15 mg/kg, blood plasma level of AS-99, i.v., time 0.083 h): 25800 nM; concentration at 0.167 h ([7]; female, CD-1, mouse, plasma, iv, 15 mg/kg, blood plasma level of AS-99, i.v., time 0.167 h): 10200 nM; concentration at 0.25 h ([7]; female, CD-1, mouse, plasma, iv, 15 mg/kg, blood plasma level of AS-99, i.v., time 0.25 h): 6620 nM; concentration at 0.5 h ([7]; female, CD-1, mouse, plasma, iv, 15 mg/kg, blood plasma level of AS-99, i.v., time 0.5 h): 5200 nM; concentration at 1 h ([7]; female, CD-1, mouse, plasma, iv, 15 mg/kg, blood plasma level of AS-99, i.v., time 1 h): 1780 nM; concentration at 2 h ([7]; female, CD-1, mouse, plasma, iv, 15 mg/kg, blood plasma level of AS-99, i.v., time 2 h): 854 nM; concentration at 4 h ([7]; female, CD-1, mouse, plasma, iv, 15 mg/kg, blood plasma level of AS-99, i.v., time 4 h): 268 nM; concentration at 7 h ([7]; female, CD-1, mouse, plasma, iv, 15 mg/kg, blood plasma level of AS-99, i.v., time 7 h): 126 nM; concentration at 16 h ([7]; female, CD-1, mouse, plasma, iv, 15 mg/kg, blood plasma level of AS-99, i.v., time 16 h): 24.7 nM; concentration at 24 h ([7]; female, CD-1, mouse, plasma, iv, 15 mg/kg, blood plasma level of AS-99, i.v., time 24 h): 15.1 nM; Cmax [7, 19]: > 10000 nM; half-life [7, 19]: 5 to 6 h; blood plasma level of AS-99 ([7]; i.p., time 0.167 h): 8805 nM and 7458 nM; blood plasma level of AS-99 ([7]; i.p., time 0.25 h): 6902 nM and 8721 nM; blood plasma level of AS-99 ([7]; i.p., time 0.5 h): 6683.5 nM and 5152 nM; blood plasma level of AS-99 ([7]; i.p., time 1 h): 5269 nM and 5185 nM; blood plasma level of AS-99 ([7]; i.p., time 2 h): 3266 nM and 1801 nM; blood plasma level of AS-99 ([7]; i.p., time 4 h): 1054 nM and 710.4 nM; blood plasma level of AS-99 ([7]; i.p., time 7 h): 351.9 nM and 247.5 nM; blood plasma level of AS-99 ([7]; i.p., time 16 h): 71.89 nM and 86.7 nM; blood plasma level of AS-99 ([7]; i.p., time 24 h): 43.77 nM and 41.41 nM; blood plasma level of AS-99 ([7]; i.v., time 0.083 h): 37878.8 nM; blood plasma level of AS-99 ([7]; i.v., time 0.167 h): 7643.1 nM; blood plasma level of AS-99 ([7]; i.v., time 0.25 h): 5774 nM; blood plasma level of AS-99 ([7]; i.v., time 0.5 h): 4798 nM; blood plasma level of AS-99 ([7]; i.v., time 1 h): 2559 nM; blood plasma level of AS-99 ([7]; i.v., time 2 h): 611.1 nM; blood plasma level of AS-99 ([7]; i.v., time 4 h): 217.2 nM; blood plasma level of AS-99 ([7]; i.v., time 7 h): 94.11 nM; blood plasma level of AS-99 ([7]; i.v., time 16 h): 29.8 nM; blood plasma level of AS-99 ([7]; i.v., time 24 h): 15.32 nM; activity at 50 µM [8]: 101%; % activity ([8]; 50 µM): 119.029%; activity at 50 µM [9]: 106%; % activity ([9]; 50 µM): 114.852%; activity at 50 µM [10]: 101%; % activity ([10]; 50 µM): 99.1882%; activity at 50 µM [11]: 101%; % activity ([11]; 50 µM): 119.954%; activity at 50 µM [12]: 103%; % activity ([12]; 50 µM): 110.439%; activity at 50 µM [13]: 88.7%; % activity ([13]; 50 µM): 78.6146%; B cells [14, 20]: 42.2% and 44% and 40.1% and 47.1% and 47.9% and 45.4% and 35.4% and 37.2% and 39.4%; Myeloid cells [14, 20]: 16.7% and 17.1% (2×) and 23.3% and 12.6% and 14.8% and 9.84% and 22.2% and 17.7%; T cells [14, 20]: 27.1% and 24.3% and 22.5% and 18.4% and 27% and 27.8% and 32.5% and 30% and 29.5%; T-cells [14, 21]: unaffected; myeloid and B-cells [14, 21]: slightly changed (increased and reduced, respectively); activity at 50 µM [15]: 122%; % activity ([15]; 50 µM): 110.616%; reduction in the bioluminescence signal versus vehicle ([16]; 30 mg/kg, i.p., q.d., 14 days): 65%; average radiance ([16]; day 6 after transplantation (start of treatment)): 6110 p/s/cm2/sr and 4700 p/s/cm2/sr and 4630 p/s/cm2/sr and 3760 p/s/cm2/sr and 10800 p/s/cm2/sr and 52500 p/s/cm2/sr and 8750 p/s/cm2/sr; average radiance ([16]; day 13 after transplantation): 199000 p/s/cm2/sr and 275000 p/s/cm2/sr and 78900 p/s/cm2/sr and 62500 p/s/cm2/sr and 231000 p/s/cm2/sr and 5680 p/s/cm2/sr and 144000 p/s/cm2/sr; average radiance ([16]; day 19 after transplantation (last day of treatment)): 1090000 p/s/cm2/sr (2×) and 1280000 p/s/cm2/sr and 524000 p/s/cm2/sr and 386000 p/s/cm2/sr and 8110 p/s/cm2/sr and 9660 p/s/cm2/sr; effect on colony number or morphology [17]: no effect on colony number or morphology; colony counts ([17]; 3 uM): 70 and 68; colony counts ([17]; 6 uM): 86 and 64; activity at 50 µM [18]: 112%; % activity ([18]; 50 µM): 113.763%
